Patent publication US9187458B2, “Cyanoquinoline derivatives” (Tianjin Hemay Bio-Tech Co., LTD., priority 2010, dated 2015)

Columns and labels:
Type in all cases: cell-based
SK-OV-3 cells = test: SK-OV-3 Cell Growth Inhibition Test (MTT Assay); details: Homo sapiens, 72 h incubation
In short: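 SK-OV-3 human ovarian cancer cells in McCoy's 5A/10% FBS were seeded at 4000 cells/well, then exposed to compound for 72 h at 37° C, 5% CO2. Viability was read by MTT (0.5 mg/ml, 3 h) and OD at 490 nm. IC50 = concentration giving 50% inhibition from fitted inhibition ratios.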

CCRF-CEM/T cells = test: CCRF-CEM/T Cell Growth Inhibition Test (MTT Assay); details: Homo sapiens, CCRF-CEM/T cells (resistant to paclitaxel), 72 h incubation
In short: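 Human acute lymphocytic leukemia CCRF-CEM/T suspension cells, 20000 per well, exposed to compound for 72 h at 37 °C, 5% CO2. MTT added for 3 h, formazan dissolved in SDS/isobutanol/HCl, OD read at 570 nm. IC50 is the concentration giving 50% growth inhibition, from fitted inhibition ratios.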

Fadu cells = test: Fadu Cell Growth Inhibition Test (MTT Assay); details: Homo sapiens, 72 h incubation
In short: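 Fadu head and neck cancer cells in EMEM + 10% FBS, 6000 cells/well, dosed next day and incubated 72 h at 37 °C, 5% CO2. MTT 0.5 mg/ml for 3 h, DMSO solubilization, OD at 490 nm; inhibition ratio from positive and negative controls, IC50 from fitted curve.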

AsPC-1 cells = test: AsPC-1 Cell Growth Inhibition Test (MTT Assay); details: Homo sapiens, ASPC1, 72 h incubation
In short: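 Human pancreatic cancer AsPC-1 cells seeded at 8000 cells/well, incubated overnight, then exposed to compound for 72 h at 37 °C, 5% CO2. Viability read by MTT (0.5 mg/ml, 3 h), formazan dissolved in DMSO, OD at 490 nm. Inhibition ratio = (PC−n)/(PC−NC)×100%; IC50 = concentration giving 50% inhibition, curve-fitted.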

SMILES	IC50 (SK-OV-3 cells)	IC50 (CCRF-CEM/T cells)	IC50 (Fadu cells)	IC50 (AsPC-1 cells)
C#Cc1cccc(Nc2c(C#N)cnc3cc(O[C@H]4CCOC4)c(NC(=O)/C=C/CN(C)C)cc23)c1 [Example 140, (S,E)-N-(3-CYANO-4-(3-ETHYNYLPHENYLAMINO)-7-(TETRAHYDROFURAN-3-YL-OXY)QUINOLIN-6-YL)-4-(DIMETHYLAMINO)-BUT-2-ENAMIDE]	0.286 µM	7.9 µM		
CN(C)C/C=C/C(=O)Nc1cc2c(Nc3ccc(OCc4ccccn4)c(Cl)c3)c(C#N)cnc2cc1O[C@H]1CCOC1 [Example 138, (S,E)-N-(4-(3-CHLORO-4-(PYRIDIN-2-YL-METHOXY)PHENYLAMINO)-3-CYANO-7-(TETRAHYDROFURAN-3-YL-OXY)QUINOLIN-6-YL)-4-(DIMETHYLAMINO)-BUT-2-ENAMIDE]	0.457 µM	5.6 µM	0.101 µM	1 µM
CN(C)C/C=C/C(=O)Nc1cc2c(Nc3ccc(OCc4ccccn4)c(Cl)c3)c(C#N)cnc2cc1O[C@@H]1CCOC1 [Example 139, (R,E)-N-(4-(3-CHLORO-4-(PYRIDIN-2-YL-METHOXY)PHENYLAMINO)-3-CYANO-7-(TETRAHYDROFURAN-3-YL-OXY)QUINOLIN-6-YL)-4-(DIMETHYLAMINO)-BUT-2-ENAMIDE]	0.371 µM	1.4 µM	0.201 µM	0.422 µM
CN(C)C/C=C/C(=O)Nc1cc2c(Nc3ccc(F)c(Cl)c3)c(C#N)cnc2cc1O[C@H]1CCOC1 [Example 142, (S,E)-N-(4-(3-CHLORO-4-FLUOROPHENYLAMINO)-3-CYANO-7-(TETRAHYDROFURAN-3-YL-OXY)QUINOLIN-6-YL)-4-(DIMETHYLAMINO)-BUT-2-ENAMIDE]	0.553 µM	6.6 µM	0.115 µM	1.5 µM
C#Cc1cccc(Nc2c(C#N)cnc3cc(OC4CCOC4)c(NC(=O)/C=C/CN(C)C)cc23)c1 (stereo not shown) [Example 5, (E)-N-(3-CYANO-4-(3-ETHYNYLPHENYLAMINO)-7-(TETRAHYDROFURAN-3-YL-OXY)QUINOLIN-6-YL)-4-(DIMETHYLAMINO)-BUT-2-ENAMIDE]	0.195 µM	9 µM		
C#Cc1cccc(Nc2c(C#N)cnc3cc(O[C@@H]4CCOC4)c(NC(=O)/C=C/CN(C)C)cc23)c1 [Example 141, (R,E)-N-(3-CYANO-4-(3-ETHYNYLPHENYLAMINO)-7-(TETRAHYDROFURAN-3-YL-OXY)QUINOLIN-6-YL)-4-(DIMETHYLAMINO)-BUT-2-ENAMIDE]	0.283 µM	9.1 µM		
CN(C)C/C=C/C(=O)Nc1cc2c(Nc3ccc(F)c(Cl)c3)c(C#N)cnc2cc1OC1CCOC1 (stereo not shown) [Example 4, (E)-N-(4-(3-CHLORO-4-FLUOROPHENYLAMINO)-3-CYANO-7-(TETRAHYDROFURAN-3-YL-OXY)QUINOLIN-6-YL)-4-(DIMETHYLAMINO)-BUT-2-ENAMIDE]	0.409 µM	5.8 µM	0.331 µM	1 µM
